These results are taken from PubChem BioAssay (NCI).

The structures appear in SMILES notation. Several values for one entry are separate records, joined by “and”; a condition that tells them apart may be missing. Equal entries are not always repeated.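 Where inhibition never reached the appropriate level, the endpoint shown equals the highest concentration tested. Otherwise, values were interpolated linearly from a five-concentration, 48-hour dose response in 96-well plates. GI50 is the concentration that inhibits growth by half. TGI: total growth inhibition.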

Test systems include SW-620 colon; MCF7 breast; HCC-2998 colon; HT29 colon; OVCAR-5 ovarian; COLO 205 colon; SNB-75 CNS; M14 melanoma; SNB-19 CNS; SR leukemia; UACC-257 melanoma; LOX IMVI melanoma; SK-MEL-28 melanoma; U251 CNS.
Common to all, as to experiment: DTP human tumour cell line panel, 48 h

For the compound `COC(=O)CCC(C)C1CCC2C3CCC4CC5CCC4(C)C3(O5)C(Br)C(Br)C12C` (stereo not given), the TGI with SW-620 colon, with MCF7 breast, in the assay with HCC-2998 colon, with HT29 colon, in the assay with OVCAR-5 ovarian and with COLO 205 colon was over 100 µM in each case. Also, the TGI in the assay on SNB-75 CNS, with M14 melanoma, in the assay with SNB-19 CNS, with SR leukemia, in the assay with UACC-257 melanoma and with LOX IMVI melanoma was over 100 µM each time. The TGI with SK-MEL-28 melanoma and with U251 CNS was over 100 µM in each case.

Turning to `O=C1CCc2cc3c(cc21)CC1(Cc2cc4c(cc2C1)CCCC4)C3`, the TGI in the assay with SW-620 colon, with MCF7 breast, in the assay on HCC-2998 colon, with HT29 colon, in the assay with OVCAR-5 ovarian and in the assay with COLO 205 colon was over 100 µM in each case. Further, the TGI in the assay with SNB-75 CNS was 75.1 µM; in the assay with M14 melanoma it was over 100 µM; with SNB-19 CNS, over 100 µM; in the assay on SR leukemia it was 47.7 µM; with UACC-257 melanoma, over 100 µM; in the assay with LOX IMVI melanoma, over 100 µM. The TGI in the assay on SK-MEL-28 melanoma and in the assay with U251 CNS was over 100 µM each time.

As for `CCOC(=O)/C=C/c1c[nH]c(C(=O)OCC)c1`, the TGI in the assay on SW-620 colon, in the assay on MCF7 breast, in the assay on HCC-2998 colon, in the assay with HT29 colon, in the assay on OVCAR-5 ovarian and in the assay on COLO 205 colon was over 100 µM throughout. Moreover, the TGI in the assay with SNB-75 CNS, in the assay with SNB-19 CNS, with UACC-257 melanoma, with LOX IMVI melanoma, in the assay with SK-MEL-28 melanoma and in the assay with U251 CNS was over 100 µM throughout.

Take `CC(=O)c1cccc(NC(=O)C(=O)C(C(=O)c2ccccc2F)C2OC(=O)c3ccccc32)c1` (stereo not given): the TGI with SW-620 colon is over 100 µM; in the assay on HCC-2998 colon, 53.9 µM; with HT29 colon, over 100 µM; with OVCAR-5 ovarian, over 100 µM; in the assay on COLO 205 colon, 41.9 µM; with SNB-75 CNS, 76.3 µM. The TGI is over 100 µM with M14 melanoma; over 100 µM in the assay on SNB-19 CNS; 54.9 µM with SR leukemia; over 100 µM with UACC-257 melanoma; 62.9 µM in the assay with LOX IMVI melanoma; over 100 µM in the assay with SK-MEL-28 melanoma. The compound further came in with a TGI in the assay with U251 CNS of 53.2 µM.

Regarding `CC(C)CCCC(C)[C@H]1CC[C@H]2[C@@H]3CC[C@H]4C[C@@H](CCC=C(c5cc(Cl)c(O)c(C(=O)O)c5)c5cc(Cl)c(O)c(C(=O)O)c5)CC[C@]4(C)[C@H]3CC[C@]12C` (stereo not given in full) (tested in a mixture with another compound), the TGI in the assay with SW-620 colon, with MCF7 breast, in the assay on HCC-2998 colon, in the assay on HT29 colon, in the assay on OVCAR-5 ovarian and in the assay with COLO 205 colon was over 50 µM throughout. Moreover, the TGI in the assay with SNB-75 CNS, with M14 melanoma, in the assay on SNB-19 CNS, in the assay on LOX IMVI melanoma, in the assay with SK-MEL-28 melanoma and in the assay with U251 CNS was over 50 µM throughout.

In the case of `Nc1nc(Cl)cc(NCCCCCCCCCCCCNc2cc(Cl)nc(N)n2)n1`, the TGI in the assay on SW-620 colon is over 100 µM; with HCC-2998 colon, over 100 µM; in the assay with HT29 colon, over 100 µM; with COLO 205 colon, over 100 µM; with SNB-75 CNS it was 34 µM; in the assay on M14 melanoma, over 100 µM. Moreover, the TGI with SR leukemia is over 100 µM; with UACC-257 melanoma, over 100 µM; with LOX IMVI melanoma, 14.5 µM; with SK-MEL-28 melanoma it was 30 µM; with U251 CNS, 20.1 µM.

Turning to `CC[C@](C)(O)C(=O)O[C@H]1C(=O)O[C@@H]2C[C@H]3C(C)=C[C@H](O)[C@@H](O)[C@]3(C)[C@H]3[C@@]4(O)OC[C@]32[C@@H]1[C@@H](C)[C@H]4O`, the TGI in the assay with SW-620 colon stood at 61.7 µM; in the assay with MCF7 breast, 39 µM; with HCC-2998 colon, 71.4 µM; in the assay with HT29 colon, 120 µM; in the assay on OVCAR-5 ovarian, 291 µM; in the assay on COLO 205 colon, 86.1 µM. Further, the TGI in the assay with SNB-75 CNS came to 86.5 µM; with SNB-19 CNS, 48.8 µM; with UACC-257 melanoma, 149 µM; in the assay on LOX IMVI melanoma, 68.4 µM; in the assay on SK-MEL-28 melanoma, 123 µM; with U251 CNS, 70.5 µM.

Consider `CCOC(=O)C1=NN(c2ccccc2)C2=CC(C)=NN(C)C(=S)N21`, for which the TGI in the assay with SW-620 colon, with MCF7 breast, with HCC-2998 colon, with HT29 colon, with OVCAR-5 ovarian and in the assay on COLO 205 colon was over 100 µM each time. The TGI in the assay on SNB-75 CNS, in the assay on M14 melanoma, with SNB-19 CNS, with SR leukemia, with UACC-257 melanoma and with LOX IMVI melanoma was over 100 µM throughout. The TGI with SK-MEL-28 melanoma and in the assay on U251 CNS was over 100 µM each time.

Turning to `ClCc1ccc2ccc3ccc(CCl)nc3c2n1`, the TGI amounted to 7.79 µM in the assay with SW-620 colon; 2.74 µM in the assay with MCF7 breast; 8.59 µM in the assay on HCC-2998 colon; 6.28 µM with HT29 colon; 7.82 µM in the assay on OVCAR-5 ovarian; 3.15 µM with COLO 205 colon. The TGI with SNB-75 CNS came to 5.83 µM; in the assay with SNB-19 CNS it was 27.9 µM; with UACC-257 melanoma, 3.38 µM; in the assay on LOX IMVI melanoma, 2.9 µM; in the assay with SK-MEL-28 melanoma it was 4 µM; in the assay on U251 CNS it was 3.78 µM.

As to `COc1cc(C2c3cc4c(cc3[C@@H](NCCCN(C)C)[C@H]3COC(=O)C23)OCO4)cc(OC)c1O` (stereo not given in full), the TGI in the assay on SW-620 colon was 1.18 µM and 4.27 µM; in the assay on HCC-2998 colon it was 1.48 µM and 1.35 µM; with HT29 colon, > 37.5 µM and 6.09 µM; in the assay with OVCAR-5 ovarian it was 2.59 µM and 5.52 µM; in the assay with COLO 205 colon, 3.93 µM and 5.78 µM; in the assay on SNB-75 CNS, 4.21 µM and 6.84 µM. Further, the TGI was 1.45 µM and 1.91 µM in the assay with SNB-19 CNS; 7.25 µM and 10.3 µM in the assay on UACC-257 melanoma; 0.927 µM and 2.11 µM in the assay on LOX IMVI melanoma; 2.09 µM and 8.62 µM in the assay on SK-MEL-28 melanoma; 2.15 µM and 1.9 µM in the assay on U251 CNS. Further, the GI50 was 0.714 µM and 1.94 µM in the assay with COLO 205 colon; 0.393 µM and 0.838 µM in the assay with SNB-75 CNS; 0.354 µM and 0.0544 µM with SR leukemia; 1.03 µM and 2.1 µM in the assay on UACC-257 melanoma; 0.764 µM and 2.76 µM in the assay with SK-MEL-28 melanoma.
